The nature of the series: Human HepG2 cell viability assay in 384 well format. Type of series: toxicity, cell-based. Also noted: dose 125 nL, time 70.5 hour; cytotoxicity at 70.5 h: concentration not given beside the values. The note with it: HepG2 cells, read-out: Inhibition.

`COCCN(CC1CCCN(C2Cc3ccccc3C2)C1)C(=O)CSC` (stereo unspecified): the cytotoxicity at 70.5 h is -2.79%.

Consider `O=C(c1cn(CCN2CCCCC2)nn1)N1CCSCC1`, for which the cytotoxicity at 70.5 h is -1.47%.

On to `CCOCc1nc2c(c(N3CC=CC3)n1)CCN(C1CCOCC1)CC2`, for which the cytotoxicity at 70.5 h was determined as 0.826%.

With `CCc1nc(N2CCN(c3ncccn3)CC2)c2cnn(C)c2n1`, the cytotoxicity at 70.5 h was -5.59%.

Consider `Cc1nc(O)cc(C2CCCN(Cc3c(Cl)cncc3Cl)C2)n1` (stereo unspecified), for which the cytotoxicity at 70.5 h was -8.65%.

Regarding `O=C(CCCn1nnc(-c2ccc(F)cc2)n1)N1CCOCC(CO)C1` (stereo unspecified), the cytotoxicity at 70.5 h came out at 23.7%.

Turning to `CC(Cn1cncn1)NCCN1CCc2ccccc21` (stereo unspecified), the cytotoxicity at 70.5 h was -5.52%.

On to `O=C1C[C@H]2CC[C@@H](CN1)N2C(=O)CCc1ccsc1`, for which the cytotoxicity at 70.5 h was -9.38%.

Regarding `Cc1noc(C)c1CN1C[C@@H](C(=O)O)[C@H](C(C)C)C1`, the cytotoxicity at 70.5 h is -10%.

For `Fc1ccc(C2CCCCN2Cc2cc(-c3ccccn3)no2)cc1` (stereo unspecified), the cytotoxicity at 70.5 h came to 17.8%.

With `CN(Cc1nc(C2CC2)no1)C(=O)c1cccc(CC2CCNCC2)c1`, the cytotoxicity at 70.5 h was -5.09%.

In the case of `CN(C)C(=O)NCc1cc2n(n1)CCCN(C[C@H]1[C@@H]3CNC[C@@H]31)C2`, the cytotoxicity at 70.5 h is -0.846%.

Consider `COC(=O)c1sccc1S(=O)(=O)N1CCc2c(ncnc2N(C)C)C1`, for which the cytotoxicity at 70.5 h is -1.11%.

As to `CC(C)=Cc1c(-c2ccccc2)ncn1CCS(C)(=O)=O`, the cytotoxicity at 70.5 h is 7.25%.

With `COc1ccc(O)c(C(=O)NCC2CCCN(C3CCOCC3)C2)c1` (stereo unspecified), the cytotoxicity at 70.5 h was -10.8%.

For `Cn1ccnc1CN1CCC(c2nc3ccccc3n2C)CC1`, the cytotoxicity at 70.5 h stood at 28.7%.

On to `CNCCCNc1nc(C2CCCC2)nc2c1cnn2C`, for which the cytotoxicity at 70.5 h was determined as 2.51%.

With `Cc1nnc(CN2C[C@H]3CC[C@@H]2CN(C2Cc4ccccc4C2)C3)o1`, the cytotoxicity at 70.5 h is 4.16%.

For `Cc1ccc(N2CCN(C(=O)CCC(F)(F)F)C(C)C2)cc1` (stereo unspecified), the cytotoxicity at 70.5 h was -18.6%.

With `Cc1nn(CCNC(C)Cn2ccnc2)c(C)c1Cl` (stereo unspecified), the cytotoxicity at 70.5 h was -1.29%.

`CN1CCCN(S(=O)(=O)c2cccc(C(=O)N3CCCCCC3)c2)CC1`: the cytotoxicity at 70.5 h was -7.86%.

Regarding `O=C(c1coc(CN2CCN(c3ccccc3F)CC2)n1)N1CCCC1`, the cytotoxicity at 70.5 h came to 5.68%.

On to `CN1CCN(Cc2nnc(C3CCN(C4CCCCC4)CC3)n2C)CC1`, for which the cytotoxicity at 70.5 h is -27.4%.

For `CN(CC1=CCCN(CCc2ccccn2)C1)C(=O)c1ccco1`, the cytotoxicity at 70.5 h is -9.19%.

For the compound `CN(CCc1noc(C2CC2)n1)C(=O)C1(N2CCCC2)CCCC1`, the cytotoxicity at 70.5 h was -3.64%.

Consider `COC(=O)c1cccnc1N1CCC(Oc2cccc(F)c2)CC1`, for which the cytotoxicity at 70.5 h stood at 1.14%.

As for `Cc1nc(C2CCN(CC(=O)NC3CC3)CC2)cc(N2CCOCC2)n1`, the cytotoxicity at 70.5 h is -0.642%.

As to `c1ncn(Cc2nnc(C3CCN(CC4CC4)CC3)n2C2CC2)n1`, the cytotoxicity at 70.5 h is -15.3%.

With `CN(Cc1cnc(C(C)(C)C)nc1)Cc1nc2ccc(F)cc2[nH]1`, the cytotoxicity at 70.5 h was -5.62%.

Regarding `COc1ccc(CN2C[C@@H]3CC[C@H](C2)N(Cc2snnc2C)C3)cc1`, the cytotoxicity at 70.5 h amounted to 49%.

On to `NCCN1CCC(c2nnc(Cn3ccnc3)n2C2CC2)CC1`, for which the cytotoxicity at 70.5 h was -3.91%.

In the case of `CCCc1cnc(C)nc1N1CCC2(CC1)CNC(=O)O2`, the cytotoxicity at 70.5 h amounted to 10.5%.

Take `CC1(C)CNC(=O)c2nc(CCN3CCC(C(N)=O)CC3)[nH]c2C1`: the cytotoxicity at 70.5 h was -11.8%.

Consider `O=C(c1ccc[nH]1)N1CCN(CC2CCOc3ccccc3C2)CC1` (stereo unspecified), for which the cytotoxicity at 70.5 h came to 16.4%.

On to `CN(Cc1ccc(F)cc1)CC1(O)CCCN(CC(C)(C)C)C1=O` (stereo unspecified), for which the cytotoxicity at 70.5 h was -6.42%.

`CS(=O)(=O)NCc1cc2n(n1)CCCN(Cc1cccc(C#N)c1)C2`: the cytotoxicity at 70.5 h was -9.28%.

Turning to `Cc1cc(N2CCC(c3nnc(CN(C)C)n3C3CC3)CC2)ccn1`, the cytotoxicity at 70.5 h stood at 18.3%.

Consider `CCOc1ncccc1C(=O)N1CCCC(c2nccn2CCOC)C1` (stereo unspecified), for which the cytotoxicity at 70.5 h was -9.63%.

As for `CCCS(=O)(=O)c1ncc(CN2CCC(CO)CC2)n1CC1CCCO1` (stereo unspecified), the cytotoxicity at 70.5 h was -4.07%.

`N#Cc1ccccc1C(=O)N1C[C@H](CO)C[C@H](CN2CCCC2)C1`: the cytotoxicity at 70.5 h is -8.82%.

Regarding `CN(C)c1ccccc1C(=O)N1C[C@@H](CN2CCCCC2)[C@@H](CO)C1`, the cytotoxicity at 70.5 h was -3.58%.

For the compound `CN(C)C(=O)N1CCN(C(=O)C(c2ccccc2F)N(C)C)CC1` (stereo unspecified), the cytotoxicity at 70.5 h is -4.32%.

As to `COCCCn1c(CN2CCCC(O)C2)cnc1S(=O)(=O)C1CCCC1` (stereo unspecified), the cytotoxicity at 70.5 h was -5.61%.

For the compound `COCc1nc(CNC2CCSCC2)no1`, the cytotoxicity at 70.5 h was -8.13%.

`CCn1ncnc1C(C)NC(=O)C1CCN(C(=O)COC)CC1` (stereo unspecified): the cytotoxicity at 70.5 h is -8.09%.

As to `COc1ccc(CN2CCC(O)CC2)c(OC)c1`, the cytotoxicity at 70.5 h was -6.19%.

Take `CCS(=O)(=O)c1ncc(CN(C)Cc2ccccn2)n1CCOC`: the cytotoxicity at 70.5 h is -5.34%.

Take `CCOCCn1nc(C)cc1C(=O)N1CCOCC(CO)C1` (stereo unspecified): the cytotoxicity at 70.5 h amounted to 12%.

For the compound `COc1ccccc1OC1CCN(Cc2cnc(N(C)C)nc2)CC1`, the cytotoxicity at 70.5 h is -7.45%.

Consider `CS(=O)(=O)N1CCC(Oc2ccc(C(=O)N3CCSCC3)cc2Cl)CC1`, for which the cytotoxicity at 70.5 h came out at 0.994%.

Take `O=S(=O)(Cc1ccccc1)NCc1ccco1`: the cytotoxicity at 70.5 h is -5.52%.

For `CCn1ccnc1CN1C[C@@H](CN2CCCC2)[C@@H](CO)C1`, the cytotoxicity at 70.5 h is -0.818%.

As to `CCc1nc(C)c([C@H]2CN(C)C[C@@H]2C(=O)NCCc2cnccn2)[nH]1`, the cytotoxicity at 70.5 h is -5.77%.

As to `Cc1cc(N2CCCCCC2)n2nc(C)c(C)c2n1`, the cytotoxicity at 70.5 h was -4.52%.

As for `O=C(CCc1cccnc1)N(Cc1ccsc1)CC1CCCO1` (stereo unspecified), the cytotoxicity at 70.5 h is -6.73%.

In the case of `CC(C)NC(=O)[C@@H]1C[C@H](N)CN1C(=O)c1cc2ccccc2[nH]c1=O`, the cytotoxicity at 70.5 h is -8.06%.

As for `Cc1nonc1CC(=O)N1C[C@@H]2CC[C@H](C1)N(Cc1ccccc1)C2=O`, the cytotoxicity at 70.5 h amounted to 8.97%.

With `c1cn(Cc2nnc(C3CCN(c4nccs4)CC3)n2C2CC2)cn1`, the cytotoxicity at 70.5 h is -4.16%.

For the compound `CC(C)c1cc(NCC(C)N2CCCC2)n2nccc2n1` (stereo unspecified), the cytotoxicity at 70.5 h is -10.1%.

Regarding `CN(CCO)C[C@@H]1CN(C(=O)c2c(F)cccc2Cl)C[C@@H]1CO`, the cytotoxicity at 70.5 h was -8.11%.

Take `O=C(c1cccnc1)N1C[C@@H]2CC[C@H](C1)N(Cc1ncc[nH]1)C2`: the cytotoxicity at 70.5 h is -7.7%.

For `Cc1cc(NCc2cc3n(n2)CCCN(S(C)(=O)=O)C3)ncn1`, the cytotoxicity at 70.5 h is -5.23%.

Turning to `CC(C)=CCN1C(=O)[C@H]2CC[C@@H]1CN(Cc1cccnc1N)C2`, the cytotoxicity at 70.5 h is -4.57%.

Turning to `O=C(CCc1cc2n(n1)CCCN(Cc1ccccc1F)C2)NC1CC1`, the cytotoxicity at 70.5 h turned out to be 0.504%.

`Cc1cc2c(cc1C(=O)N1CC[C@H](CO)[C@@H](O)C1)OCCO2`: the cytotoxicity at 70.5 h was -7.62%.

In the case of `O=C(Cc1ccc2c(c1)OCO2)N1CCCN(c2ccccc2)CC1`, the cytotoxicity at 70.5 h was -4.44%.

`COc1cccc2c1OCC(C(=O)N1CCN(S(C)(=O)=O)CC1)C2` (stereo unspecified): the cytotoxicity at 70.5 h is 20.3%.

For `Cc1ccc(C(=O)N2CCN(S(C)(=O)=O)CC2)cc1N1CCNC1=O`, the cytotoxicity at 70.5 h was -1.5%.

Regarding `O=C(c1cc(COc2ccc3c(c2)OCO3)[nH]n1)N1CCCC1`, the cytotoxicity at 70.5 h is -5.85%.

In the case of `CCn1c(CN(C)C)nnc1C1CCN(Cc2cccc(OC)c2)CC1`, the cytotoxicity at 70.5 h came to 4.9%.

As for `CN(C)Cc1ccc(C2CCCCN2C(=O)c2cccc(CO)n2)cc1` (stereo unspecified), the cytotoxicity at 70.5 h was 23.6%.

`Clc1ccccc1C1(c2ccnc(-c3ccncc3)n2)CCNCC1`: the cytotoxicity at 70.5 h is -5.92%.

On to `Cc1ccc([C@@H]2CN(C(=O)c3csc(C)n3)C[C@H]2NC(=O)C2CC2)cc1`, for which the cytotoxicity at 70.5 h was -12.3%.

For `CCC(=O)N1CCc2[nH]cnc2C12CCN(C(=O)CCS(C)(=O)=O)CC2`, the cytotoxicity at 70.5 h was -1.4%.

Consider `CN(Cc1cccc(O)c1)CC1CCCN(CCc2ccc(Cl)cc2)C1` (stereo unspecified), for which the cytotoxicity at 70.5 h turned out to be 10.2%.

On to `CN(C)CC(=O)N1CCCC2(CCC(=O)N(CCc3c[nH]cn3)C2)C1` (stereo unspecified), for which the cytotoxicity at 70.5 h is -14.8%.

`COCc1cc(NCc2cc(F)ccc2F)n2nccc2n1`: the cytotoxicity at 70.5 h is -0.226%.

Regarding `CN(CCc1ccccc1)C1CCCN(Cc2nccn2C)C1` (stereo unspecified), the cytotoxicity at 70.5 h is -4.92%.

As for `Cc1cc(N2CCN(Cc3nccn3C)CC2)cc(C)n1`, the cytotoxicity at 70.5 h came out at 18.4%.

As to `CN(C)C(=O)CN1C[C@@H]2CC[C@H](C1)N(Cc1cccc(Cl)c1Cl)C2`, the cytotoxicity at 70.5 h came out at 7.51%.

For the compound `Fc1ccccc1Cc1noc(CN2CCCC(CN3CCCC3)C2)n1` (stereo unspecified), the cytotoxicity at 70.5 h is -2.47%.

Regarding `CCCN(CCO)C(=O)C1CCC(=O)N(CCc2ccc(Cl)cc2)C1` (stereo unspecified), the cytotoxicity at 70.5 h was -4.6%.

As for `CSc1ccc(-c2nc(CN3CCC(NC(C)=O)C3)c(C)o2)cc1` (stereo unspecified), the cytotoxicity at 70.5 h was -1.58%.

Take `CC(CN1CCOCC1)NCC1CCN(c2cnn(C)c(=O)c2)CC1` (stereo unspecified): the cytotoxicity at 70.5 h was -4.8%.

Turning to `CC(C)CCc1noc(CN2CCCN(C(=O)c3ccco3)CC2)n1`, the cytotoxicity at 70.5 h is -0.918%.

Take `Cn1cccc1-c1cc(C(=O)N2CC(c3cccnc3)C2)[nH]n1`: the cytotoxicity at 70.5 h is -5.83%.

Consider `CSc1ncccc1C(=O)N1C[C@H]2CC[C@@H]1CN(c1cnccn1)C2`, for which the cytotoxicity at 70.5 h is -10.6%.

`O=C1CC2(CCN(CCO)CC2)CN1Cc1cc(F)cc(F)c1`: the cytotoxicity at 70.5 h was -7.72%.

For the compound `COCCN(C)C[C@@H]1CN(C(=O)c2ccoc2)C[C@@H]1CO`, the cytotoxicity at 70.5 h is -7.32%.

As to `COc1ccc2c(c1)CCN(CCC(=O)O)CC2`, the cytotoxicity at 70.5 h was 12.3%.

As to `Cc1ccsc1CN(Cc1ccccn1)CC(C)C`, the cytotoxicity at 70.5 h was -6.06%.

As for `CCCc1cc(C(=O)N(C)Cc2cnc3ccccc3n2)n(C)n1`, the cytotoxicity at 70.5 h is -4.51%.

Consider `CC(C)c1cc(NCC(O)c2ccc(F)cc2)n2nccc2n1` (stereo unspecified), for which the cytotoxicity at 70.5 h was 0.769%.

As for `N#CC1CCCN(c2nc(-c3ccccc3)nc3c2CCNCC3)C1` (stereo unspecified), the cytotoxicity at 70.5 h was 6.37%.

With `Cc1nc[nH]c1-c1nc2cc(S(=O)(=O)N3CCCC3)ccc2n1C`, the cytotoxicity at 70.5 h was -2.05%.

On to `CN1CC(c2ccccc2)CC12CCN(C(=O)c1c(Cl)cnn1C)CC2` (stereo unspecified), for which the cytotoxicity at 70.5 h was -7.56%.
